These results are taken from paper PMC8765781, “A platform of assays for the discovery of anti-Zika small-molecules with activity in a 3D-bioprinted outer-blood-retina model” (PLoS ONE, 2022).

As usually defined, the AC50 is the concentration giving half of the maximal activity seen.

Like-named read-outs stand apart in the source and are kept apart here. Bounds are passed on as bounds.

This test relates to wild-type ZIKV (Ugandan MR766 strain) in Vero cells. The test can be described thus: ZIKV cytopathic effect (CPE) inhibition qHTS assay, CellTiter-Glo readout. It counts as cell-based, Zika virus. Conditions: for Emax: read-out: Max response.
[1] abbreviates: Zika virus, Vero, read-out: Log AC50 (M) (converted).
Setting [2] is: Zika virus, Vero, read-out: Log AC50 (converted).

Turning to `C=C1CC2OC(=O)C(=C)C2C(OC(=O)/C(C)=C\C)CC2(C)OC1=CC2=O` (stereo not drawn) [NCGC00384607-01], the “CC-v2 (curve class classification of the dose response curve)” value (from here on “CC-v2”) is recorded as -3 and the Efficacy is reported as -115.469. The same molecule showed an AC50 (Zika virus, Vero) of 4.53e-05 M. In addition, the AC50 under setting [1] is 4.53e-05 M.

Turning to `COC(=O)C12CCC(C)C(C)C1C1=CCC3C4(C)CCC(OC(C)=O)C(C)(C)C4CCC3(C)C1(C)CC2` (stereo not drawn) [NCGC00179932-02], the “CC-v2” value is recorded as -3 and the Efficacy was -73.633. In addition, the AC50 (Zika virus, Vero) is 1.42e-05 M. Besides, the AC50 under setting [1] is 1.42e-05 M.

As to `C=C(CO)C(=O)O[C@H]1C/C(C)=C/CC/C(CO)=C/[C@H]2OC(=O)C(=C)[C@H]12` [NCGC00380889-01], the “CC-v2” value is -3 and the Efficacy is reported as -76.574. Where the note is “Zika virus, Vero”, this molecule gave an AC50 of 1.43e-05 M. Besides, the AC50 under setting [1] is 1.43e-05 M.

`C[C@@H]1O[C@@H](O[C@H]2[C@H](O[C@H]3CC[C@@]4(C)C(CC[C@]5(C)C4C=C[C@]46OC[C@@]7(CCC(C)(C)C[C@H]74)[C@@H](O[C@@H]4O[C@@H](C)[C@H](O)[C@@H](O)[C@H]4O)C[C@]65C)[C@]3(C)CO)O[C@H](CO)[C@@H](O)[C@@H]2O[C@@H]2O[C@H](CO)[C@@H](O)[C@H](O)[C@H]2O)[C@H](O)[C@H](O)[C@H]1O` (stereo partly drawn) [NCGC00384707-01] showed an Efficacy of -27.107. Where the note is “Zika virus, Vero”, this molecule came in with an AC50 of 6.18e-06 M. For the same molecule, the half-maximal activity concentration (AC50) under setting [1] was 6.18e-06 M.

In turn, `C[C@H]1C(=O)N2c3ccccc3[C@@]3(O)C[C@@H]4C(=O)N[C@](C)(c5nc6ccccc6c(=O)n54)N1[C@@H]23` [NCGC00169614-02] displayed a Curve class of -3 and an Efficacy of -78.987. Moreover, for the setting “Zika virus, Vero”, the AC50 was determined as 1.59e-05 M and the Emax turned out to be 0.173%. Besides, the AC50 under setting [2] is 1.59e-05 M.

For `O=C(O)C[C@H]1CC[C@H](c2ccc(-c3ccc(Nc4ccc(C(F)(F)F)nc4)cn3)cc2)CC1` [NCGC00378933-01], the “CC-v2” value is given as -3 and the Efficacy was -46.182. For the same molecule, the activity (Zika virus, Vero) was half-maximal at 5.8e-05 M (AC50). Further, under setting [1], the AC50 is 5.8e-05 M.

Turning to `C=C(C)C1CCC(C)C12CC(O)C1(C)OC1C2OC(=O)C(N)CCC(=O)O` (stereo not drawn) [NCGC00381118-01], the “CC-v2” value is -3 and the Efficacy is recorded as -55.082. Also, the AC50 (Zika virus, Vero) is 2.02e-05 M. Also, under setting [1], the AC50 is 2.02e-05 M.

As for `CN(CC[C@H](N)CC(=O)N[C@H]1C=C[C@@H](n2ccc(N)nc2=O)O[C@@H]1C(=O)O)C(=N)N` [NCGC00386414-01], the “CC-v2” value is -1.1 and the Efficacy is given as -84.972. Also, under “Zika virus, Vero”, the AC50 is 2.66e-06 M. Also, the AC50 under setting [1] is 2.66e-06 M.

For `O=C1N(CC2CCCCN2)CCN1c1ccccc1` (stereo not drawn) [NCGC00370981-01], the “CC-v2” value is reported as -3 and the Efficacy is listed as -38.034. In addition, where the note is “Zika virus, Vero”, the AC50 stood at 2.91e-05 M. Moreover, under setting [1], the AC50 is 2.91e-05 M.

Take `COc1ccc2cc1Oc1ccc(cc1)C[C@H]1c3c(cc4c(c3Oc3cc5c(cc3OC)CCN(C)[C@@H]5C2)OCO4)CCN1C` [NCGC00161621-05]: the Efficacy is given as -31.519. In addition, the AC50 (Zika virus, Vero) was 6.51e-05 M. Moreover, under setting [1], the AC50 was 6.51e-05 M.

Regarding `COc1cc(N(C)CCN(C)C)c(N)cc1Nc1nccc(-c2cn(C)c3ccccc23)n1` [NCGC00390638-01], the “CC-v2” value is given as -3 and the Efficacy is given as -48.353. Under “Zika virus, Vero”, the activity was half-maximal at 6.51e-05 M (AC50). Moreover, under setting [1], the half-maximal activity concentration (AC50) was 6.51e-05 M.

As to `C=C(C)C(=O)O[C@H]1[C@@H]2[C@H](C)C(=O)O[C@@H]2C[C@@H](C)[C@@H]2C=CC(=O)[C@]21C` [NCGC00347858-02], the “CC-v2” value is -2.1 and the Efficacy was -111.628. In addition, the AC50 (Zika virus, Vero) was found to be 4.53e-05 M. Further, under setting [1], the AC50 was 4.53e-05 M.

Turning to `CC1(C)CC=C(C#Cc2ccccc2)c2cc(/C=C/c3ccc(C(=O)O)cc3)ccc21` [NCGC00387103-01], the “CC-v2” value was -2.2 and the Efficacy is -97.274. Under “Zika virus, Vero”, this molecule displayed a half-maximal activity concentration (AC50) of 5.17e-05 M. For the same molecule, the AC50 under setting [1] is 5.17e-05 M.

With `C=C(C)C(=O)O[C@H]1[C@H]2C(=C)C(=O)O[C@@H]2C[C@@H](C)/C=C\C(=O)[C@](C)(O)[C@@H]1OC(C)=O` [NCGC00169210-02], the Curve class is reported as -3 and the Efficacy is recorded as -39.663. For the same molecule, for the setting “Zika virus, Vero”, the AC50 stood at 3.55e-05 M and the Emax was -40.2%. Further, the half-maximal activity concentration (AC50) under setting [2] was 3.55e-05 M.

For the molecule `CC(C)c1cccc2c(-c3ccccc3)cc(-c3ccc(-c4ccc(C(=O)O)cc4)[nH]3)nc12` [NCGC00370963-01], the “CC-v2” value is given as -3 and the Efficacy is reported as -43.883. This molecule came in with an AC50 (Zika virus, Vero) of 2.91e-05 M. For the same molecule, under setting [1], the AC50 is 2.91e-05 M.

With `CO[C@H]1/C=C/C=C/C=C/C[C@H](OC(=O)[C@@H](C)NC(=O)C2CCCCC2)[C@H](C)[C@@H](O)/C(C)=C\CCc2cc(O)cc(c2)NC(=O)C1` [NCGC00380800-01], the “CC-v2” value is -1.2 and the Efficacy is on record as -73.026. The concentration at half-maximal activity (AC50) (Zika virus, Vero) was 5.44e-06 M. Besides, the AC50 under setting [1] was 5.44e-06 M.

Take `CCOC(=O)C1=C(N)Oc2ccc(Br)cc2C1C(C#N)C(=O)OCC` (stereo not drawn) [NCGC00025207-15]: the Efficacy is listed as -30.652. Moreover, the half-maximal activity concentration (AC50) under setting [1] was 7.31e-05 M.

Consider `C=C1C(=O)O[C@@H]2/C=C(\CO)CC/C=C(/C=O)C[C@H](O)[C@@H]12` [NCGC00385803-01], for which the Curve class was -3 and the Efficacy was -41.449. For the setting “Zika virus, Vero”, half-maximal activity (AC50) was put at 6.51e-05 M and the Emax was -37.5%. The AC50 under setting [2] was 6.51e-05 M.

Take `CC1(C)CC=C(c2cnc3ccccc3c2)c2cc(C(=O)Nc3ccc(C(=O)O)cc3)ccc21` [NCGC00370906-01]: the Efficacy is -33.992. In addition, the concentration at half-maximal activity (AC50) (Zika virus, Vero) came to 5.17e-05 M. In addition, under setting [1], the half-maximal activity concentration (AC50) was 5.17e-05 M.

`C=CC(=O)N1CCCN(c2cc(NCCC(=O)O)nc(-c3ccccn3)n2)CC1` [NCGC00420854-01] yielded an Efficacy of -33.164. This molecule yielded an AC50 (Zika virus, Vero) of 5.8e-05 M. Further, the half-maximal activity concentration (AC50) under setting [1] is 5.8e-05 M.

Turning to `C=C1C(=O)OC2/C=C(\C)C3=CC(=O)C(C)(CC(OC(=O)/C(C)=C/COC(C)=O)C12)O3` (stereo not drawn) [NCGC00384503-01], the “CC-v2” value is recorded as -2.1 and the Efficacy is given as -109.374. The AC50 (Zika virus, Vero) was determined as 3.17e-05 M. For the same molecule, the half-maximal activity concentration (AC50) under setting [1] is 3.17e-05 M.

Molecule `C=CC(=O)Nc1ccc2ncnc(Nc3cccc(Br)c3)c2c1` [NCGC00386260-02] gave a Curve class of -3 and an Efficacy of -35.975. Where the note is “Zika virus, Vero”, the half-maximal activity concentration (AC50) worked out at 7.31e-05 M and the Emax was -31.6%. Further, the AC50 under setting [2] was above 4.6e-05 M.

Turning to `O=C1c2c(O[C@@H]3O[C@H](CO)[C@@H](O)[C@H](O)[C@H]3O)cc(O)cc2OC1(O)Cc1ccc(O)cc1` (stereo partly drawn) [NCGC00168800-03], the “CC-v2” value is -3 and the Efficacy is -41.876. Moreover, half-maximal activity (Zika virus, Vero) (AC50) was put at 3.17e-05 M. Moreover, under setting [1], the AC50 is 3.17e-05 M.

`COC(=O)C1=C(C)NC(C)=C(C(=O)OC)C1c1cccc(NC(=O)NCCCN2CCC(c3cccc(OC)c3)CC2)c1` [NCGC00485144-01]: the Efficacy is given as -27.731. The activity (Zika virus, Vero) was half-maximal at 7.31e-05 M (AC50). In addition, the AC50 under setting [1] is 7.31e-05 M.

For the molecule `CCCNc1ccc2ncc(-c3ccc4[nH]ncc4c3)n2n1` [NCGC00370724-05], the “CC-v2” value is -2.2 and the Efficacy is on record as -62.08. For the same molecule, for the setting “Zika virus, Vero”, half-maximal activity (AC50) was put at 5.8e-05 M. Moreover, the AC50 under setting [1] was 5.8e-05 M.

On to `CC(=O)OC[C@]12C[C@H](OC(C)=O)C(C)=C[C@H]1O[C@@H]1[C@H](O)[C@@H](O)[C@@]2(C)[C@]12CO2` [NCGC00381306-01], for which the Efficacy is reported as -39.385, the “Log AC50 (M)” value is recorded as -5.644 M and the “Max Resp” value was -23.356. The concentration at half-maximal activity (AC50) (read-out: AC50) amounted to 2.27e-06 M.

The molecule `C=CC/C=C\C/C=C\CCCCCCCc1cc(O)cc(O)c1` [NCGC00168928-02] returned an Efficacy of -22.946. Also, the AC50 (Zika virus, Vero) worked out at 4.53e-05 M. Also, the AC50 under setting [1] is 4.53e-05 M.

For the molecule `CC1(C)CC[C@]2(C(=O)O)CC[C@]3(C)C(=CCC4[C@@]5(C)CC[C@H](O[C@@H]6O[C@H](C(=O)O)[C@@H](O[C@@H]7OC[C@@H](O)[C@H](O)[C@H]7O)[C@H](O)[C@H]6O)C(C)(C)C5CC[C@]43C)C2C1O` (stereo partly drawn) [NCGC00179805-02], the “CC-v2” value was -3 and the Efficacy is listed as -39.908. Besides, under “Zika virus, Vero”, the AC50 is 2.73e-05 M. The AC50 under setting [1] is 2.73e-05 M.

Consider `C[C@@H]1CCC2C(C)(C)[C@H](O)CC[C@]2(C)[C@@]12Cc1c(O)cc3c(c1O2)CN(CCO)C3=O` (stereo partly drawn) [NCGC00381123-01], for which the “CC-v2” value is recorded as -3 and the Efficacy is reported as -75.159. The molecule also registered a concentration at half-maximal activity (AC50) (Zika virus, Vero) of 8.93e-06 M. Moreover, under setting [1], the AC50 was 8.93e-06 M.

Molecule `C=C(C(=O)O)[C@@H]1CC[C@@]2(C)CCC[C@@](C)(O)[C@@H]2C1` [NCGC00169889-02] showed a Curve class of -3 and an Efficacy of -77.65. Besides, where the note is “Zika virus, Vero”, half-maximal activity (AC50) was put at 2.91e-05 M and the Emax was -0.865%. Besides, under setting [2], the AC50 was 2.91e-05 M.

`Cc1cc(C)c(-c2csc(NC(=O)c3ccccc3)n2)c(C)c1` [NCGC00386342-01] displayed a Curve class of -3 and an Efficacy of -75.252. Also, for the setting “Zika virus, Vero”, the activity was half-maximal at 2.31e-05 M (AC50) and the Emax was found to be 8.19%. Further, the AC50 under setting [2] is 2.31e-05 M.

For the molecule `C[C@H]1[C@H](C)CC[C@]2(C(=O)O)CC[C@]3(C)C(=CC[C@@H]4[C@@]5(C)C[C@@H](O)[C@H](O)[C@@](C)(CO)[C@@H]5CC[C@]43C)[C@H]12` [NCGC00346584-02], the Efficacy is -33.569. This molecule displayed an AC50 (Zika virus, Vero) of 5.8e-05 M. Moreover, the AC50 under setting [1] was 5.8e-05 M.

`C[C@H]1CCC[C@H](O)CCC/C=C/c2cc(O)cc(O)c2C(=O)O1` [NCGC00485224-01]: the “CC-v2” value is recorded as -3 and the Efficacy is -58.539. For the same molecule, for the setting “Zika virus, Vero”, half-maximal activity (AC50) was put at 6.51e-05 M. Also, the AC50 under setting [1] is 6.51e-05 M.
